# In patent publication US9849102B2, “Treatment for reducing inflammation” (ISIFER AB, priority 2010, dated 2017):
# “Also recorded” adds a separate entry of the source.
# Tests used:
# Type in all cases: cell-based, human
# [1] = system: MCP-1; assay: ELISA of MCP-1 production from endometriosis cells incubated with lidocaine
# Protocol: (§1) During laparotomy, human endometriosis tissue biopsies from endometriosis cysts were obtained from four women during laparotomy. The tissue samples were handled aseptically, transported to the laboratory and frozen in fluid nitrogen to −150° C. The biopsies were later verified histologically as endometriosis tissue. The sampling procedure was approved by the Ethical Committee. The frozen endometriosis tissues were thawed in water at +37° C. and then transferred to test tubes. Two tissue biopsy samples were taken from each endometrioma and prepared as follows: the endometriosis tissue covering the inside of endometriosis cysts was detached from encapsulating fibrous tissue by gentle scraping with a knife. The tissue was then exposed for 0.2% collagenase Type III (Worthington Biochemical Corporation Freehold, N.J., USA) for 2 h. The cell suspension was then centrifuged at 1500 rpm for 10 min. The cells were re-suspended in RPMI 1640 cell culture medium with L-glutamine and phenol red (Invitrogen Ltd), 20% Foetal Bovine serum (Invitrogen Ltd), sodium pyruvate, MEM 100 mM (Invitrogen Ltd), non-essential amino acids (Invitrogen Ltd), heparin 90 μg/ml (Sigma-Aldrich Fine Chemicals St Louis, Mo., USA), penicillin-streptomycin with 10.000 Units/ml penicillin G sodium and 10.000 μg/ml streptomycin sulphate in 0.85% saline (Invitrogen Ltd), Hepes buffer solution 1M (Invitrogen Ltd) and seeded in T-75 cm^2 cell culture flasks (Nunc, Roskilde, Denmark) pre-coated with 0.2% gelatin (Sigma-Aldrich). The culture medium was changed the following day and thereafter once a week. When confluent monolayers were obtained after 3 weeks, the cultures were tryptinized cultures from passages 4 and 6 were frozen in fluid nitrogen to −150° C. and later used for experiments.
# (§2) The lidocaine treatments of the cells were performed in duplicates on the endometriosis cells that were used for experiments. […] The production of MCP-1, TNF-α and […] was measured according to the manufacturer's using an enzyme-linked immunosorbent assay (ELISA, Quantikine, R&D Systems, Minneapolis, Minn. 55413, USA).
# [2] = system: IL-1β; assay: ELISA of IL-1β in cell medium of endometriosis cells incubated with lidocaine
# Protocol: as §1, §2
# [3] = system: TNF-α; assay: ELISA of TNF-α production from endometriosis cells incubated with lidocaine
# Protocol: as §1, §2
# [4] = incubation with lidocaine 1 mg/ml, 24 and 48 h, versus control
compound,measurement,setting,value
CCN(CC)CC(=O)Nc1c(C)cccc1C [Lidocaine],MCP-1 in Lidocaine medium 24 h,"[1]; human endometriosis cell culture medium, lidocaine hydrochloride 1 mg/ml, 24 h, control medium 24 h 145.0",62.0 pg/mL
same,MCP-1 in Lidocaine medium 48 h,"[1]; human endometriosis cell culture medium, lidocaine hydrochloride 1 mg/ml, 48 h, control medium 48 h 315.0",122.0 pg/mL
same,MCP-1 production from endometriosis cells (in words),[1]; [4],substantial reduction; also recorded: seems to be reduced
same,concentration of IL-1β in the cell medium (in words),[2]; before and after incubation with lidocaine,at a low level
same,IL-1β in Lidocaine medium 24 h,"[2]; human endometriosis cell culture medium, lidocaine hydrochloride 1 mg/ml, 24 h, control medium 24 h <5.00",<5.00 pg/mL
same,IL-1β in Lidocaine medium 48 h,"[2]; human endometriosis cell culture medium, lidocaine hydrochloride 1 mg/ml, 48 h, control medium 48 h <5.00",<5.00 pg/mL
same,TNF-α in Lidocaine medium 24 h,"[3]; human endometriosis cell culture medium, lidocaine hydrochloride 1 mg/ml, 24 h, control medium 24 h 8.2",9.4 pg/mL
same,TNF-α in Lidocaine medium 48 h,"[3]; human endometriosis cell culture medium, lidocaine hydrochloride 1 mg/ml, 48 h, control medium 48 h 10.5",10.0 pg/mL
same,production of TNF-α from endometriosis cells (in words),[3]; [4],unaffected
